Laboratory results: ChEMBL document CHEMBL1201862, “PubChem BioAssay data set” (2004)
Activity calls are given as the source filed them.

Assays:
[1] = Luminescent dose response cell-based high throughput screening assay for inhibitors of the Janus kinase 2 mutant JAK2V617F. [Related pubchem assays: 1446 (Primary screen.), 1521 (Confirmation assay.), 1486 (Counter screen.)]; assay type: functional
[2] = Luminescence Cell-Based Dose Confirmation HTS to Identify Inhibitors of Platelet Dense Granule Release. [Related pubchem assays: 1663 (Primary HTS), 1678 (Summary of Project)]; assay type: functional
[3] = molecular target: T1, High affinity choline transporter 1 (Homo sapiens, UniProt Q9GZV3); experiment: CHT inhibitors, dose response, cell-based, 5-point CRC, membrane potential dye (AID 504840); assay type: functional
T1 sequence (Q9GZV3 whole entry): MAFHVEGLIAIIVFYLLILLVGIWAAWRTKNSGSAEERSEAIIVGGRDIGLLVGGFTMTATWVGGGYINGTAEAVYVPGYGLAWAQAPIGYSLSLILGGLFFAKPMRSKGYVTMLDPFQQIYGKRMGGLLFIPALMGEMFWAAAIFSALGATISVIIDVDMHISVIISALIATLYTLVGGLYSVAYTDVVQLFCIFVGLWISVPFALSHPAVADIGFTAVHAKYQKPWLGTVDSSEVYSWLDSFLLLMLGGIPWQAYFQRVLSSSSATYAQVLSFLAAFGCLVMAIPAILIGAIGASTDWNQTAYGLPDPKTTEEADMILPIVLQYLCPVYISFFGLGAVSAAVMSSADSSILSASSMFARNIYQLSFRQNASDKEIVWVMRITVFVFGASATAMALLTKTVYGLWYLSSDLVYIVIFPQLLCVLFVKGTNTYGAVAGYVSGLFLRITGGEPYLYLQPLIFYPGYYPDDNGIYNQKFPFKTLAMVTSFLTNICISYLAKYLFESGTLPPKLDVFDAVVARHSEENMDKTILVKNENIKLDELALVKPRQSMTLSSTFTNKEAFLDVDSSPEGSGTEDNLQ

[4] = molecular target: Luciferin 4-monooxygenase (Photinus pyralis, UniProt P08659); experiment: firefly luciferase enzyme inhibitors, dose response, biochemical, luminescence (AID 1891)
[5] = molecular target: Bifunctional protein GlmU (Mycobacterium tuberculosis, UniProt P9WMN3); experiment: Inhibitors of Mycobacterial Glucosamine-1-phosphate acetyl transferase (GlmU). Secondary screen.; set-up: species or system Mycobacterium tuberculosis H37Rv
[6] = molecular target: T2, Rac GTPase-activating protein 1 (Homo sapiens, UniProt Q9H0H5); experiment: MgcRacGAP GTPase-activating activity inhibitors, confirmation, biochemical, ADP Hunter fluorescence, primary and confirmatory (AID 624330); assay type: functional
T2 sequence (Q9H0H5 whole entry): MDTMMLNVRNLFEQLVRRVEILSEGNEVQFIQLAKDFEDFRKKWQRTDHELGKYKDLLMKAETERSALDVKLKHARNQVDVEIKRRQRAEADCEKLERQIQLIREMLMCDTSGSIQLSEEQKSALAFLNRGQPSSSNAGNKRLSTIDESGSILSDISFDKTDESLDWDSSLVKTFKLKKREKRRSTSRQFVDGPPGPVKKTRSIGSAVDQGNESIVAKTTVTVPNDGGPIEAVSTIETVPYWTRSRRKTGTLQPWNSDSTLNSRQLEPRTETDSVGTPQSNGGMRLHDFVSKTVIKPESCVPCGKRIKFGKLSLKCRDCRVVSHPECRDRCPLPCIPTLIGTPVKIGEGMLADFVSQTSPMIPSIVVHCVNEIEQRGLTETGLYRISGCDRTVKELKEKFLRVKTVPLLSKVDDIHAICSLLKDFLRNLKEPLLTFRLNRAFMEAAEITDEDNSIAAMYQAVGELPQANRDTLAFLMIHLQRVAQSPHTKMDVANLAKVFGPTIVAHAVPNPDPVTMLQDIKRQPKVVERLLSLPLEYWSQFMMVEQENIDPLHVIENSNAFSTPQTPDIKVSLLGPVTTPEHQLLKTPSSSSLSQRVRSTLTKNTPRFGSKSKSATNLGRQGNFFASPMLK

[7] = molecular target: 26S proteasome non-ATPase regulatory subunit 14 (Homo sapiens, UniProt O00487); experiment: inhibition of proteasome subunit RPN11 – biochemical, fluorescence polarization, uHTS hits, confirmation (AID 602368); assay type: functional
[8] = molecular target: T3, Histone-lysine N-methyltransferase NSD2 (Homo sapiens, UniProt O96028); assay type: biochemical
T3 sequence (O96028 whole entry): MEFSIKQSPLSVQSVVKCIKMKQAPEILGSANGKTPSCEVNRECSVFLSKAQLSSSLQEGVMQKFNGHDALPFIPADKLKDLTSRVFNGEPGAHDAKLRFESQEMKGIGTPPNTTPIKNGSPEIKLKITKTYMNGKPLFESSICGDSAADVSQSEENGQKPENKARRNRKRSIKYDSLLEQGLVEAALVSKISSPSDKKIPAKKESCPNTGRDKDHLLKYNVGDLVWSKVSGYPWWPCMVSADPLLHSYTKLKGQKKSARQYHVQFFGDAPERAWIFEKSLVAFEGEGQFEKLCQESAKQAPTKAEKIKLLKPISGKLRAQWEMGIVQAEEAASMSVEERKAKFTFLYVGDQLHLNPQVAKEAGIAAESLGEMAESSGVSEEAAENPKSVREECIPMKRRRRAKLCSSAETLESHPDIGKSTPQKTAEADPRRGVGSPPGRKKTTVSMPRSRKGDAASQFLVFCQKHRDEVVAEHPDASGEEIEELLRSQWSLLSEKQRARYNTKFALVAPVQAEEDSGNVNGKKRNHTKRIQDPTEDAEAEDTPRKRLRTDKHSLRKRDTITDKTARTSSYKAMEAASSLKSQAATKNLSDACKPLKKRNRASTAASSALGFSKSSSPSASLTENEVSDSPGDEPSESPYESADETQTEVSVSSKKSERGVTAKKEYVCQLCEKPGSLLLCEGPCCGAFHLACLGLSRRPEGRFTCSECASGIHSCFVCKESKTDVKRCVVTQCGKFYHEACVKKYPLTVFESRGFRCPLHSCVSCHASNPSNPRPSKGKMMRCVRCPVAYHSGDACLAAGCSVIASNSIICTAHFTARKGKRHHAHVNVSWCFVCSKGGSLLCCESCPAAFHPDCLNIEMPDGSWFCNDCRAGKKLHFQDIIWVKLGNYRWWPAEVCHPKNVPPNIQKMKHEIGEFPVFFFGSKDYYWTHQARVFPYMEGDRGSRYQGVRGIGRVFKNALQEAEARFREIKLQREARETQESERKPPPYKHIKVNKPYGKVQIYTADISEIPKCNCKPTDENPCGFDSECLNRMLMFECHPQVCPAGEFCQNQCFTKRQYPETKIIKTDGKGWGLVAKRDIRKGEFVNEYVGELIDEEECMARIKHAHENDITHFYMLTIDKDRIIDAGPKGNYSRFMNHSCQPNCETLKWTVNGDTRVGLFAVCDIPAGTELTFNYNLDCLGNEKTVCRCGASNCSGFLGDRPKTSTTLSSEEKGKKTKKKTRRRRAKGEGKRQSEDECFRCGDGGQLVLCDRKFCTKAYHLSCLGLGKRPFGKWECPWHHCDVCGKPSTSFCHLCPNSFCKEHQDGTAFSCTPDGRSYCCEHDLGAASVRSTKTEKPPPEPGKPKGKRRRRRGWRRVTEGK

[9] = molecular target: Induced myeloid leukemia cell differentiation protein Mcl-1 (Homo sapiens, UniProt Q07820); assay type: functional
[10] = molecular target: 72 kDa type IV collagenase (Homo sapiens, UniProt P08253); experiment: Dose Response validation of uHTS RPN11 inhibitor hits using a MMP-2 Fluorescence assay.; assay type: functional
[11] = molecular target: Prothrombin (Bos taurus, UniProt P00735); experiment: thrombin inhibition, dose response, biochemical, fluorescence polarization, uHTS hits (AID 602369); assay type: functional
[12] = molecular target: DNA (cytosine-5)-methyltransferase 1 (Homo sapiens, UniProt P26358); experiment: DNMT1 methyltransferase inhibitors, confirmation, biochemical, fluorescent molecular beacon (AID 602386); assay type: functional
[13] = molecular target: Diphosphomevalonate decarboxylase (Streptococcus pneumoniae serotype 2 (strain D39 / NCTC 7466), UniProt Q9FD53); experiment: S. pneumoniae DPM-DC inhibition retest, confirmation, biochemical, cuvette format, coupled NADH fluorescence (AID 1028); assay type: functional
[14] = molecular target: Sphingosine 1-phosphate receptor 2 (Homo sapiens, UniProt O95136); experiment: Dose Response Cell Based Assay for Agonists of the S1P2 Receptor. [Related pubchem assays: 729, 736, 843 ]; assay type: functional
[15] = molecular target: T4, Bcl-2-related protein A1 (Mus musculus, UniProt Q07440); experiment: Bfl-1 binding inhibitors, SAR follow-up, biochemical, fluorescence polarization (AID 1070)
T4 sequence (Q07440 whole entry): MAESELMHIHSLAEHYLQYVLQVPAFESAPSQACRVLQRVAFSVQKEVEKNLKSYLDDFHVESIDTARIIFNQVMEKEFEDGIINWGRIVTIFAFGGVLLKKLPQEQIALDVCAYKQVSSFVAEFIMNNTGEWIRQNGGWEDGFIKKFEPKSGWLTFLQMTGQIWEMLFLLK

[16] = molecular target: T4, Bcl-2-related protein A1; experiment: Bfl-1 inhibitors blocking BH3 peptide binding, confirmation, biochemical, TR-FRET, mouse Bfl-1 (AID 621);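 further: TR-FRET binding of GST-Bfl-1 to FITC-labelled Bid peptide via terbium antibody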
[17] = tested on: Vero; experiment: host cell cytotoxicity of antiviral hits, dose response, cytotoxicity control for West Nile virus antiviral project, secondary assay (AID 1650); assay type: functional; details: Chlorocebus sabaeus
[18] = molecular target: T5, Zinc finger protein mex-5 (Caenorhabditis elegans, UniProt Q9XUB2); experiment: MEX-5/TCR-2 RNA interaction inhibitors, dose response, biochemical, C. elegans, fluorescence polarization (AID 1960)
T5 sequence (Q9XUB2 whole entry): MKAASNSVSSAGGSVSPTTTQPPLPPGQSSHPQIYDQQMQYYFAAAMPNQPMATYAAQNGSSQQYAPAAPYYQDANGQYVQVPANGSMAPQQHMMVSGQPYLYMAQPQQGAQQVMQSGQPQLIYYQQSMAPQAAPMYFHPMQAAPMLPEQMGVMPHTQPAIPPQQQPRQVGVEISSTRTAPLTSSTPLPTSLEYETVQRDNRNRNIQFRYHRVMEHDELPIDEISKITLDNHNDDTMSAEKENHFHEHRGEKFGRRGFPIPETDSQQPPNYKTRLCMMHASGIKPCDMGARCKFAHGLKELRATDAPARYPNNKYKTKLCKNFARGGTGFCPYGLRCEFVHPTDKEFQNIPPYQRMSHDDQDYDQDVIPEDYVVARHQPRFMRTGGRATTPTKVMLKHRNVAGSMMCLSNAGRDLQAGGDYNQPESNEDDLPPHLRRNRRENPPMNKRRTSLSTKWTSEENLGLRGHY

[19] = molecular target: Photoreceptor-specific nuclear receptor (Homo sapiens, UniProt Q9Y5X4); experiment: NR2E3 inverse agonists, dose response, biochemical, TR-FRET (AID 463256); assay type: functional
[20] = molecular target: T6, RNA-binding protein pos-1 (Caenorhabditis elegans, UniProt G5EF15); experiment: inhibitors of POS-1/mex-3 RNA binding, dose response, biochemical, fluorescence polarization (AID 1964);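 further: purified POS-1 fused to maltose binding protein made in E. coli; potency of compounds blocking POS-1 binding to fluorescent RNA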
T6 sequence (G5EF15 whole entry): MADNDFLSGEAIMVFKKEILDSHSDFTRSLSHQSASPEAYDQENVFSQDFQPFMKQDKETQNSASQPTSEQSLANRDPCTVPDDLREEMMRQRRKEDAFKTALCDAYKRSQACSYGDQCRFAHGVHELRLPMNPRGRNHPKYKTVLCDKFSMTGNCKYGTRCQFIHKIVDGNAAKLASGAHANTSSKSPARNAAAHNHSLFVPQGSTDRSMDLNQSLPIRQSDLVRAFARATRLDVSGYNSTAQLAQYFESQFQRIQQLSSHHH

[21] = molecular target: Dual specificity tyrosine-phosphorylation-regulated kinase 1A (Rattus norvegicus, UniProt Q63470); assay type: biochemical, Homo sapiens
[22] = molecular target: Peroxisome proliferator-activated receptor gamma/Nuclear receptor corepressor 2 (Homo sapiens, UniProt P37231+Q9Y618); experiment: Counterscreen for NR2E3 inverse agonists: TR-FRET-based biochemical high throughput dose response assay to identify inverse agonists of the interaction between peroxisome proliferator-activated receptor gamma (PPARg) and nuclear receptor co-repressor 2 (NCOR2).; assay type: functional
[23] = M. tuberculosis growth inhibition, HTS (AID 449762); assay type: functional
[24] = molecular target: E3 ubiquitin-protein ligase Mdm2 (Homo sapiens, UniProt Q00987); experiment: enhancers of MDM2-luciferase reporter signal, concentration-effect titration, project on inhibitors of MDM2 ubiquitin ligase, cellular assay, luminescent readout, 384-well plate format (AID 1394); assay type: functional;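 further: MDM2 E3 inhibitors raise luminescence so EC50 is for signal enhancement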
[25] = molecular target: NADPH oxidase 1 (Homo sapiens, UniProt Q9Y5S8); experiment: Late-stage luminescence-based cell-based dose response assay to identify inhibitors of NADPH oxidase 1 (NOX1): Purchased analogs 2.; assay type: functional

Sequence of Bifunctional protein GlmU (P9WMN3 whole entry): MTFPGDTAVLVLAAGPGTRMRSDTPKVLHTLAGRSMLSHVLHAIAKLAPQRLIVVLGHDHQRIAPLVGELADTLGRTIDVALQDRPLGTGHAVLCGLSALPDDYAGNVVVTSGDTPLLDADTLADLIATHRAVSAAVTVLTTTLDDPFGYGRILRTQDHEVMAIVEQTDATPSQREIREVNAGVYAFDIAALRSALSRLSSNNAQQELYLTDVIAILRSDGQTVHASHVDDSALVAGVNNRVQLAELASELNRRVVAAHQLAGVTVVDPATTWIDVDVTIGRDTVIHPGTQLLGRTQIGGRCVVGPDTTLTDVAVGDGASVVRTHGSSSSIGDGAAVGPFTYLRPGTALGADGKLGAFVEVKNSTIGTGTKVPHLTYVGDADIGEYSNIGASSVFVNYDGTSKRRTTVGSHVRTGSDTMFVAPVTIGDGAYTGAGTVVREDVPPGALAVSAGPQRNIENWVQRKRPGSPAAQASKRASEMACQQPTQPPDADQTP
Sequence of Luciferin 4-monooxygenase (P08659 whole entry): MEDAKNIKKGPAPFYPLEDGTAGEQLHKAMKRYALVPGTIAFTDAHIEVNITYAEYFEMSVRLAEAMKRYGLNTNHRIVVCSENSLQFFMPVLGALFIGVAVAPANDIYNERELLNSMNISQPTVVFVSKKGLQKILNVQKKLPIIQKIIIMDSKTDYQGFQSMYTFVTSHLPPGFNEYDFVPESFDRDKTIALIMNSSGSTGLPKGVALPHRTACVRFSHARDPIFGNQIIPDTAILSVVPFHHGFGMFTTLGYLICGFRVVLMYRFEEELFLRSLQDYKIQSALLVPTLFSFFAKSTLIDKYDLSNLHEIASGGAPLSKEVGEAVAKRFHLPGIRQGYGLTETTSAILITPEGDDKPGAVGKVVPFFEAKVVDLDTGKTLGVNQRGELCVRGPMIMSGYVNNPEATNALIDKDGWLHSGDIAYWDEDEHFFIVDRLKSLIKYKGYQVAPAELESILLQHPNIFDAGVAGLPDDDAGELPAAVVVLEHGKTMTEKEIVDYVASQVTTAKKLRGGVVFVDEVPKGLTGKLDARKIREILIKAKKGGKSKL
Sequence of Induced myeloid leukemia cell differentiation protein Mcl-1 (Q07820 whole entry): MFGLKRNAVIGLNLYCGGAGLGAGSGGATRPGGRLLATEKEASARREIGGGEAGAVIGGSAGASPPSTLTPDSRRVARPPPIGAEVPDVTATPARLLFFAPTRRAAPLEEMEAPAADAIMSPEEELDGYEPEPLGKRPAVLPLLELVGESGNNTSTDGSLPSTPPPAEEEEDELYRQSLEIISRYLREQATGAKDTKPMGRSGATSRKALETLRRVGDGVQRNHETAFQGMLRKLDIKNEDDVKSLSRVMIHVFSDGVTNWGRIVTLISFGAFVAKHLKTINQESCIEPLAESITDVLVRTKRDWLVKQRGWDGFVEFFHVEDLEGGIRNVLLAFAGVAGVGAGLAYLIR
Sequence of Sphingosine 1-phosphate receptor 2 (O95136 whole entry): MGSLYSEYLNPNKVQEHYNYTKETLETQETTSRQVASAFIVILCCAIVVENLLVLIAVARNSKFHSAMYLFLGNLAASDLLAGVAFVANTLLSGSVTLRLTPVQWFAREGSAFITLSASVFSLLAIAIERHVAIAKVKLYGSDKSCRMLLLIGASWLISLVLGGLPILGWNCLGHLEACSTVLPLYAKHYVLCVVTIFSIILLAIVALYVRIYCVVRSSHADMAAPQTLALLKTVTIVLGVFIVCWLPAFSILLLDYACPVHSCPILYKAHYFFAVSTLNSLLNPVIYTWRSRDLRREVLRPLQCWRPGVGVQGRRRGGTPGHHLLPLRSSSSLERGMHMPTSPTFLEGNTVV
Sequence of 72 kDa type IV collagenase (P08253 whole entry): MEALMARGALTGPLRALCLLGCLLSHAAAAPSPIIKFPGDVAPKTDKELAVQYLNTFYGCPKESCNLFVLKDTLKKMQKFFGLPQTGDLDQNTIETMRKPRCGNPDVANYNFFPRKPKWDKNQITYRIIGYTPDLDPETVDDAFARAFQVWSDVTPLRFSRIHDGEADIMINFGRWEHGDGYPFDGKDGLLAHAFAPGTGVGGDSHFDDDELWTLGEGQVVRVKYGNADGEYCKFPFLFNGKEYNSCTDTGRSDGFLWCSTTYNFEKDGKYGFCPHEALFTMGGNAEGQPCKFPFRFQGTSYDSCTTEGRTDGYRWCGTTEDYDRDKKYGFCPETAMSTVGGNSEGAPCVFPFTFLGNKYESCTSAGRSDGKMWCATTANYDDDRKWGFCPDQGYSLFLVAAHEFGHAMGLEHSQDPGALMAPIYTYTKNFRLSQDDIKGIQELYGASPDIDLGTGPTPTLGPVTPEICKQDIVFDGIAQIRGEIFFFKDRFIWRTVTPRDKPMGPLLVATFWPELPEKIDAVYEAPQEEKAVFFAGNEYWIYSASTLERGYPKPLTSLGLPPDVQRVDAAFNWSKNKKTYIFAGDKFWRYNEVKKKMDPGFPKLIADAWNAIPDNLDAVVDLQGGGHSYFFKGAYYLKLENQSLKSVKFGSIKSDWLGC
Sequence of DNA (cytosine-5)-methyltransferase 1 (P26358 whole entry): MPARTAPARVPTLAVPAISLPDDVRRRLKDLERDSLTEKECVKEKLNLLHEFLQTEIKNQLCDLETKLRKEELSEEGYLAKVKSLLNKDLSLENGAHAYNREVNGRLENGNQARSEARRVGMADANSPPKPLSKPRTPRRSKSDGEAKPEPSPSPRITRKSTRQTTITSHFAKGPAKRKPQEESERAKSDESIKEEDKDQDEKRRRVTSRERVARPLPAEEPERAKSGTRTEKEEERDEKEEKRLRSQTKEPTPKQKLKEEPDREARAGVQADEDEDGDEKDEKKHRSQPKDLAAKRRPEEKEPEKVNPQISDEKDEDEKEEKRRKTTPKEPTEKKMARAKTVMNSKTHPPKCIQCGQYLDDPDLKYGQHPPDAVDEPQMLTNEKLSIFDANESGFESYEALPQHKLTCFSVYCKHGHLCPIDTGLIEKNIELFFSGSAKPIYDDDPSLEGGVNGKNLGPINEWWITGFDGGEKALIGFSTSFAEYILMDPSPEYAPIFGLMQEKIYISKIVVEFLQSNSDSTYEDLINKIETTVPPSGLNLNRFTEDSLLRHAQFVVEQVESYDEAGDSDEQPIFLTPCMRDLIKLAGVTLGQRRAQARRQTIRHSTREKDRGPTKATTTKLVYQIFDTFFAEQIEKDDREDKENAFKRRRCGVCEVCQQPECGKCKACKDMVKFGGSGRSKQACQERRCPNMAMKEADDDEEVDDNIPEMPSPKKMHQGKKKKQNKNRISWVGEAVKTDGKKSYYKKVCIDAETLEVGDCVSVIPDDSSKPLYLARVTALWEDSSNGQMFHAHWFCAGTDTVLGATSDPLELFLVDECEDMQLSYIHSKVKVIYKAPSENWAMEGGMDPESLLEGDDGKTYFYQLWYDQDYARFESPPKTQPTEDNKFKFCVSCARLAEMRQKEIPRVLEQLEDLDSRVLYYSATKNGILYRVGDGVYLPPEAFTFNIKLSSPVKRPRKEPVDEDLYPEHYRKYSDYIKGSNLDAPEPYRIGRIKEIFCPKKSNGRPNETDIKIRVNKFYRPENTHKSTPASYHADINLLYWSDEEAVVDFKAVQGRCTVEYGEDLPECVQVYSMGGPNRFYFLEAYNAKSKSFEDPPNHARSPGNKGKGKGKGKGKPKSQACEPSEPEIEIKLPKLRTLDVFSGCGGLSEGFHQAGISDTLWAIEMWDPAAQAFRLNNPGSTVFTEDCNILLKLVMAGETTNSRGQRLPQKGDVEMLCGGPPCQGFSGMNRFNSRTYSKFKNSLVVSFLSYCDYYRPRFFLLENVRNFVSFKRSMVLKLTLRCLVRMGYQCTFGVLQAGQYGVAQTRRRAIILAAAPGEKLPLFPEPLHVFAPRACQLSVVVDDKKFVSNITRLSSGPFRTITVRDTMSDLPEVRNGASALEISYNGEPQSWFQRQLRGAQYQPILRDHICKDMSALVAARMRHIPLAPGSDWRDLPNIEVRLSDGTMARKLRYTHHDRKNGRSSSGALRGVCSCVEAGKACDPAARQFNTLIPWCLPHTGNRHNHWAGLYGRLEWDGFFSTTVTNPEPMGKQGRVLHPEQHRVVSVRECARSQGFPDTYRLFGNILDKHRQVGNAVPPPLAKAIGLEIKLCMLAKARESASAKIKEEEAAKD
Sequence of Diphosphomevalonate decarboxylase (Q9FD53 whole entry): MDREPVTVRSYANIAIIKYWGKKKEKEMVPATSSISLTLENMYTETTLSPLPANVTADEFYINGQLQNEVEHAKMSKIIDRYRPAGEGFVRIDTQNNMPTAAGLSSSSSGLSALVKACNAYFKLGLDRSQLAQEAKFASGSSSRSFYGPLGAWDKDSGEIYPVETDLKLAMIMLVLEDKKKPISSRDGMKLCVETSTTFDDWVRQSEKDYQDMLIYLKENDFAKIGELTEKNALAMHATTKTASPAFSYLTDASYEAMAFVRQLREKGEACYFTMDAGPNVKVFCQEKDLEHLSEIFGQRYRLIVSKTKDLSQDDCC
Sequence of Photoreceptor-specific nuclear receptor (Q9Y5X4 whole entry, the tested form may be a part): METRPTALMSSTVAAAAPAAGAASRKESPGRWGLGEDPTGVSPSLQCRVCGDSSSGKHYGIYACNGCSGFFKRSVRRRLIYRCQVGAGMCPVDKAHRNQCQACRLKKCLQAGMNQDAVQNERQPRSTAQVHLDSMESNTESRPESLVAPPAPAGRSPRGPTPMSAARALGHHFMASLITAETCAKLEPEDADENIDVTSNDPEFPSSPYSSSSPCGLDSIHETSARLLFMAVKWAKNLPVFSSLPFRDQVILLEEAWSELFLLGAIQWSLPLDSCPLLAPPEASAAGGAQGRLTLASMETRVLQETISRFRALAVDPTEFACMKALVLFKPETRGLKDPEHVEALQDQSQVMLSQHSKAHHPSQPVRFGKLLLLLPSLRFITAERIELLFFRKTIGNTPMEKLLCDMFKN

COc1cc2c(cc1OC)-c1cc(N3CCCc4ccccc43)nc(=O)n1CC2
IC50 [1]: > 40 µM (not active) | EC50 [2]: 3.35 µM (active) | IC50 [3]: 13.2 µM (active) | EC50 [4]: > 112 µM (not active)

Cc1ccc(N2C(=O)NC(=O)/C(=C/c3ccoc3)C2=O)cc1
IC50 [5]: 66.5 µM (active) | IC50 [6]: 55.7 µM (active) | IC50 [7]: 6.76 µM (active) | AC50 [8]: 7.88 µM (active) | IC50 [9]: 4.84 µM (active) | IC50 [10]: 3.45 µM (active) | IC50 [11]: 84.7 µM (active) | IC50 [12]: 4 µM (active)

CCCN(CCC)C(=O)c1ccc(-n2sc3ccccc3c2=O)cc1
IC50 [13]: 7.64 µM (active)

O=C1SC(c2ccccc2)=N/C1=C/c1ccco1
EC50 [14]: > 50 µM (not active)

Clc1ccc(-n2nnc(-c3cnc4ccccc4c3)n2)cc1Cl
IC50 [15]: > 100 µM (not active) | IC50 [16]: > 100 µM (not active)

CC(C(=O)N(C)C1CCS(=O)(=O)C1)N1C(=O)/C(=C/c2cccs2)SC1=S (stereo not given)
CC50 [17]: 32.1 µM (active)

N=C1NC(=O)/C(=C/c2ccc(-c3ccc(S(N)(=O)=O)cc3)o2)S1
EC50 [18]: 15 µM (active) | IC50 [19]: 14.2 µM (not active) | EC50 [20]: 31.9 µM (active) | AC50 [21]: 1.97 µM (active) | IC50 [22]: > 39.8 µM (not active)

C/C(=C\C(=O)c1ccccc1)Nc1ccc(Cl)c(Br)c1
IC50 [23]: > 100 µM (active)

Cc1cc2cc(C)c(SCC(=O)NCc3ccco3)nc2cc1C
EC50 [24]: 489 µM (not active)

O=C1Nc2cc(F)ccc2/C1=N/Nc1c(F)c(F)nc(F)c1F
IC50 [25]: > 17 µM (not active)
